Data taken from patent US20230240297A1, “SELECTIVE HERBICIDES BASED ON SUBSTITUTED ISOXAZOLIN CARBOXAMIDES AND CYPROSULFAMIDE” (Bayer Aktiengesellschaft, priority 2020, published 2023).

Key:
Assay type in all cases: in vivo, maize
[1] = tested on: ZEAMA Abraxas; test: Tank-mix; post-emergence, crop damage with and without safener
Procedure: (§1) Seeds of crops (spring wheat, TRZAS; spring barley, HORVS; maize, ZEAMA) were placed in sandy loam soil in peat pots, covered with soil and cultivated in a greenhouse under good growth conditions. Two to three weeks after sowing, the test plants were treated at the 1 to 3-leaf stage. The herbicide/safener active compound combinations according to the invention, formulated as wettable powders or emulsion concentrates, and, in parallel tests, the correspondingly formulated individual active compounds were sprayed onto the green parts of the plants in various dosages using an amount of water of 300 1/ha (converted).
(§2) The pots were returned under good growing conditions in a glasshouse and a visual assessment of herbicidal effects was made at intervals from 1 to 3 weeks after herbicide application (DAT = days after treatment). Assessment was on a percentage basis in comparison with untreated control plants (0% = no injury, 100% = complete kill).

[2] = tested on: ZEAMA Sileno; test: as above; conditions: for HER effect + SAF / HER effect: Final assessment; for HER effect: no safener
Procedure: as §1, §2

[3] = tested on: ZEAMA Sileno; test: Seed treatment with safener; post-emergence herbicide application; design: Reduction [Difference]: scale not given here; conditions: Final assessment; for Reduction [%] / Reduction [Difference]: Cyprosulfamide 0.5 g a.i./kg seed; for Reduction [Difference]: damage without safener - damage with safener; for HER effect + SAF (crop damage with safener): Cyprosulfamide seed treatment 0.5 g a.i./kg seed; for HER effect (crop damage, herbicide without safener): no safener
Procedure: For the safener seed treatment, sufficient seeds of the respective crops (spring wheat, TRZAS; spring barley, HORVS; maize, ZEAMA) were weighed into screw top glass bottles approximately twice the volume of the seeds.
The specified safeners, formulated as wettable powder (WP) were weighed out so that the specified rates (g a.i./kg seed) would be obtained, dissolved in water (1 ml water per 10 g of seeds), and added to the seeds to produce a slurry.
The bottles were capped and then placed in an overhead shaker (set at medium speed for ca. 60 minutes) so that the seeds were evenly coated with the slurry. The bottles were uncapped and the seeds were either placed on paper and dried for an interval of 3-4 hours prior to sowing, or directly sown. Seeds were placed in sandy loam soil in pots of a diameter of 7-8 cm, covered with soil, and cultivated in a greenhouse under good growth conditions.
Post-emergence application of the specified herbicides was done when the plants had reached growth stage BBCH11-13, on two sets of plants:
a) seed treatment with safener, as described above b) no safener treatment
The herbicides were formulated as WP and sprayed onto the green parts of the plants as an aqueous suspension at an equivalent water application rate of 300 1/ha, with addition of wetting agent and adjuvants (e.g. Mero, 1.5 1/ha; ammonium sulphate, 2 kg/ha)
After application, the test plants were kept in the greenhouse under good growth conditions.
Values in the table below are mean values of at least 2 replicates.

[4] = HER 32 g a.i./ha, cyprosulfamide 100 g a.i./ha
[5] = HER 8 g a.i./ha, cyprosulfamide 50 g a.i./ha
[6] = HER dose 8 g a.i./ha + cyprosulfamide 50 g a.i./ha tank-mix
[7] = HER dose 32 g a.i./ha + cyprosulfamide 100 g a.i./ha tank-mix

| Compound | Reduction [%] [2, 5] [%] | Reduction [Difference] [2, 5] | Reduction [%] [2, 4] [%] | Reduction [Difference] [2, 4] | HER effect + SAF [2, 6] [%] | HER effect ([2]; HER dose 8 g a.i./ha) [%] | HER effect + SAF [2, 7] [%] | HER effect ([2]; HER dose 32 g a.i./ha) [%] | Reduction [%] ([3]; HER dose 8 g a.i./ha) | Reduction [Difference] ([3]; HER dose 8 g a.i./ha) | HER effect + SAF (crop damage with safener) ([3]; HER dose 8 g a.i./ha) [%] | HER effect (crop damage, herbicide without safener) ([3]; HER dose 8 g a.i./ha) [%] | Reduction [%] ([3]; HER dose 32 g a.i./ha) | Reduction [Difference] ([3]; HER dose 32 g a.i./ha) | HER effect + SAF (crop damage with safener) ([3]; HER dose 32 g a.i./ha) [%] | HER effect (crop damage, herbicide without safener) ([3]; HER dose 32 g a.i./ha) [%] | also measured |
| --- | --- | --- | --- | --- | --- | --- | --- | --- | --- | --- | --- | --- | --- | --- | --- | --- | --- |
| CC1(C(=O)NC2C=CC(C(=O)OCCCl)C2)CC(c2cc(F)cc(F)c2)=NO1 (mixture of isomers) [Example 1.47] |  |  |  |  |  |  |  |  |  |  |  |  |  |  |  |  | Reduction [%] [1, 4]: 84%; Reduction [Difference] [1, 4]: 52; HER effect + SAF ([1]; HER dose 32 g a.i./ha + cyprosulfamide 100 g a.i./ha tank-mix, Final assessment): 10%; HER effect ([1]; HER dose 32 g a.i./ha, no safener, Final assessment): 62% |
| C=CCOC(=O)C1CC(NC(=O)C2(C=C)CC(c3cc(F)cc(F)c3)=NO2)CO1 (mixture of isomers) [Example 1.83] | 73 | 45 | 73 | 62 | 17 | 62 | 23 | 85 | 100 | 62 | 0 | 62 | 96 | 82 | 3 | 85 |  |
| COC(=O)C1(C)CC(NC(=O)C2(C(C)(F)F)CC(c3cc(F)cc(F)c3)=NO2)CO1 (mixture of isomers) [Example 1.94] | 89 | 81 | 76 | 71 | 10 | 91 | 23 | 94 | 100 | 91 | 0 | 91 | 93 | 87 | 7 | 94 |  |
| COCCOC(=O)C1C=CC(NC(=O)C2(C(F)(F)F)CC(c3cc(F)cc(C#N)c3)=NO2)C1 (stereo not drawn) [Example 1.2] | 44 | 40 | 48 | 46 | 50 | 90 | 50 | 96 | 89 | 80 | 10 | 90 | 81 | 78 | 18 | 96 |  |
| COCCOC(=O)C1C=CC(NC(=O)C2(C)CC(c3cc(Cl)cc(C#N)c3)=NO2)C1 (stereo not drawn) [Example 1.5] | 55 | 47 | 50 | 48 | 38 | 85 | 48 | 96 | 88 | 75 | 10 | 85 | 79 | 76 | 20 | 96 | Reduction [%] ([3]; HER dose 2 g a.i./ha): 100%; Reduction [Difference] ([3]; HER dose 2 g a.i./ha): 23; HER effect + SAF (crop damage with safener) ([3]; HER dose 2 g a.i./ha): 0%; HER effect (crop damage, herbicide without safener) ([3]; HER dose 2 g a.i./ha): 23% |
